The target of one experiment is T1, hGCGR (Homo sapiens, UniProt P47871).
T1 construct: expressed in transfected cells
Nature of the experiment: Functional cAMP formation (HTRF) in HEK-293 clonal cells expressing hGCGR, 0.1% bovine casein, without or with 1.0% human serum albumin. The experiment is classed as cell-based. The settings on record: read-out: hGCGR EC50, nM (SEM, n). The essentials:
(§1)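 Readings of the HTRF 665/620 nm ratio, which falls as cAMP rises, were converted to nM cAMP using a standard curve after 30 min peptide exposure at 37° C.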
(In general: cAMP levels reflect the balance of adenylyl cyclase and phosphodiesterase activity.)

In another experiment the target is hGLP-1R (Homo sapiens, UniProt P43220). Briefly: Functional cAMP formation (HTRF) in HEK-293 clonal cells expressing hGLP-1R, 0.1% bovine casein, without or with 1.0% human serum albumin. In kind it is cell-based. Set-up: expressed in transfected cells. The following applies: for EC50: geometric mean, read-out: hGLP-1R EC50, nM (SEM, n). In short, it runs like this:
as §1

The target in the next experiment is T2, hGIPR (Homo sapiens, UniProt P48546).
T2 construct: expressed in transfected cells
T2 sequence (P48546 22-466): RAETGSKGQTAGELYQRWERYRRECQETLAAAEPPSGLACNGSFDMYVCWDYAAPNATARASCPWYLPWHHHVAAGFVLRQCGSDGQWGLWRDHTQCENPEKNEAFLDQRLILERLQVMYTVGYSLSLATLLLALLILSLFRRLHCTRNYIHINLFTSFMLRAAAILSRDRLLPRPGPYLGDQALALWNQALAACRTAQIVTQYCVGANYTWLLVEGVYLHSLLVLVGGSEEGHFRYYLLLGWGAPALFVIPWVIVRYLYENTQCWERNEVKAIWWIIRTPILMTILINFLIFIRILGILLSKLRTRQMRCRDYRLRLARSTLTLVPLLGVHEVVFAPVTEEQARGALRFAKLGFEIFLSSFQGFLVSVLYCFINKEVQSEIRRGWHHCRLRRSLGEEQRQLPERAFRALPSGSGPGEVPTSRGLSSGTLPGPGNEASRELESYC
Briefly: Functional cAMP formation (HTRF) in HEK-293 clonal cells expressing hGIPR, 0.1% bovine casein, without or with 1.0% human serum albumin. The following applies: for Emax: read-out: hGIPR Emax, % ± SEM; for EC50: read-out: hGIPR EC50, nM (SEM, n). In kind it is cell-based. In short, it runs like this: as §1

Experiment [1] has as its target T3, human Gcg receptor (hGcgR) (Homo sapiens, UniProt P47871).
T3 construct: expressed in transfected cells; crude membranes
Nature of the experiment: [125I]-Glucagon binding, SPA with membranes of HEK293 cells expressing hGcgR. The settings on record: human GcgR; geometric mean (SEM, n); read-out: Binding Affinity Ki, nM (SEM, n) hGCGR. As to the method:
Two methods are used for the preparation of crude cell membranes.
Method 1: Frozen cell pellets are lysed on ice in hypotonic buffer containing 50 mM Tris HCl, pH 7.5, and Roche Complete™ Protease Inhibitors with EDTA. […] The homogenate is centrifuged at 4° C. at 1100 × g for 10 minutes. The supernatant is collected and stored on ice while the pellets are resuspended in homogenization buffer and rehomogenized as described above. The homogenate is centrifuged at 1100 × g for 10 minutes. The second supernatant is combined with the first supernatant and centrifuged at 35000 × g for 1 hour at 4° C. The resulting membrane pellet is resuspended in homogenization buffer containing protease inhibitors at approximately 1 to 3 mg/mL, quick frozen in liquid nitrogen and stored as aliquots in a -80° C. freezer until use.
The homogenate is centrifuged at 4° C. at 1800 × g for 15 minutes. The supernatant is collected and stored on ice while the pellets are resuspended in homogenization buffer (without DNAse I) and rehomogenized as described above. The homogenate is centrifuged at 1800 × g for 15 minutes. The second supernatant is combined with the first supernatant and centrifuged an additional time at 1800 × g for 15 minutes. The overall supernatant is then centrifuged at 25000 × g for 30 minutes at 4° C. The resulting membrane pellet is resuspended in homogenization buffer (without DNAse I) containing protease inhibitors at approximately 1 to 3 mg/mL and stored as aliquots in a -80° C. freezer until use.
The human Gcg receptor binding assays are performed using a Scintillation Proximity Assay (SPA) format with wheat germ agglutinin (WGA) beads (Perkin Elmer). The binding buffer contains 25 mM 4-(2-hydroxyethyl)-1-piperazineethanesulfonic acid (HEPES), pH 7.4, 2.5 mM CaCl2, 1 mM MgCh, 0.1% (w/v) bacitracin (Research Products), 0.003% (w/v) Polyoxyethylenesorbitan monolaurate (TWEEN®-20), and Roche Complete™ Protease Inhibitors without EDTA. […] Next, 5 µL serially diluted compound or DMSO is transferred into Corning® 3632 clear bottom assay plates containing 45 µL assay binding buffer or unlabeled Gcg control (non-specific binding or NSB, at 1 µM final). […] Plates are sealed and mixed on a plate shaker (setting 6) for 1 minute and read with a PerkinElmer Trilux MicroBeta® scintillation counter after 12 hours of incubation/settling time at room temperature.
Raw CPM data for concentration curves of peptides, Gcg, GLP-1, or GIP are converted to percent inhibition by subtracting nonspecific binding (binding in the presence of excess unlabeled Gcg, GLP-1, or GIP, respectively) from the individual CPM values and dividing by the total binding signal, also corrected by subtracting nonspecific binding. Data are analyzed using four-parameter (curve maximum, curve minimum, IC50, Hill slope) nonlinear regression routines (Genedata Screener, version 12.0.4, Genedata AG, Basal, Switzerland). […] Values for Ki are reported as the geometric mean, with error expressed as the standard error of the mean (SEM) and n is equal to the number of independent replicates (determined in assays performed on different days). Geometric Means are calculated as follows: […]
The Ki Ratio (Ki for native control peptide/Ki for test compound) at each receptor and each species is calculated. The Ki Ratio is a rapid indication of the apparent affinity of a peptide compared to the native control peptide.
n=⅟x means that only one value out of the total number of replicates (x) is used to express the mean. SEM is only calculated when n=2 or greater non-qualified results exist. Means are expressed as GeoMetric means with the standard error of the mean (SEM) and the number of replicates (n) indicated in parenthesis.

Where [2] appears, read: cAMP, 37° C., 0.1% bovine casein (no human serum albumin), geometric mean.
The mark [3] stands for this setting: cAMP, 37° C., 0.1% bovine casein and 1.0% human serum albumin, geometric mean (SEM, n).
The mark [4] stands for this setting: 0.1% bovine casein and 1.0% human serum albumin, 37° C., geometric mean.
[5] abbreviates: cAMP, incubated at 37° C., 0.1% bovine casein (no human serum albumin), geometric mean.
Where [6] appears, read: cAMP, incubated at 37° C., 0.1% bovine casein (no human serum albumin).
Where [7] appears, read: HEK293, 0.1% bovine casein and 1.0% human serum albumin, 37° C., percent of maximal response to GIP(1-42)NH2.

Each structure is given as a SMILES string. Like-named read-outs stand apart in the source and are kept apart here.

Sequence of hGLP-1R (P43220 24-463): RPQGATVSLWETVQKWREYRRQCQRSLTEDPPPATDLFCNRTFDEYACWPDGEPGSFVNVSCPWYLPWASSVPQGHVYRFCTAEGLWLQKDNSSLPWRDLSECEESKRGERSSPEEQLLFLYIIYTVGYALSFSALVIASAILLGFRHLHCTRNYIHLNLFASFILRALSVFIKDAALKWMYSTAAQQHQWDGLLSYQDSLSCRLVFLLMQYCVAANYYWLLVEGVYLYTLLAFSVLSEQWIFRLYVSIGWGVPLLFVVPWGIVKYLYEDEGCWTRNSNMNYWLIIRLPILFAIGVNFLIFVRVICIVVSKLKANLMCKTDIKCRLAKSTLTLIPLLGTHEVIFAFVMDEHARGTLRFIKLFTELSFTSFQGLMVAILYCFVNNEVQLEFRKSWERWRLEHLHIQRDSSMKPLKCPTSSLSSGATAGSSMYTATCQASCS
T3 sequence (P47871 26-477): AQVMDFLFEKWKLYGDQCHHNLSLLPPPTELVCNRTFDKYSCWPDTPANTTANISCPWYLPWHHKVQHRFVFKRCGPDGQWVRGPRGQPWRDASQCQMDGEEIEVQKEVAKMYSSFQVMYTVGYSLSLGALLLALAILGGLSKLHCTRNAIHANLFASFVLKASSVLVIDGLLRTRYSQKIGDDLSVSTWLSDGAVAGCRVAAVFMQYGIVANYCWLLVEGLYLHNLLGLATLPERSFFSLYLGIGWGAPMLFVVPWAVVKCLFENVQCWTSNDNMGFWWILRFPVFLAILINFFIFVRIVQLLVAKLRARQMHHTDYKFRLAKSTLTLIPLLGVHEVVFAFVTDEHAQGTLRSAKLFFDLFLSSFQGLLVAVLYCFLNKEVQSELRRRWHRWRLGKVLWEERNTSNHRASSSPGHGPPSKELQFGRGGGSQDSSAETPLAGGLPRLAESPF
T1 sequence (P47871 26-477): as above

By EC50 is commonly meant the concentration at which the effect is half-maximal. What is called Emax is the greatest response seen or fitted, relative to the assay's reference. The term Ki denotes a measure of affinity in units of concentration, obtained from inhibition or displacement. Regarding `CC[C@H](C)[C@H](NC(=O)[C@H](CC(C)C)NC(=O)[C@](C)(Cc1ccc(O)cc1)NC(=O)[C@@H](CCC(=O)O)NC(=O)[C@@H](NC(=O)[C@H](Cc1ccccc1)NC(=O)[C@H](CCC(=O)O)NC(=O)C(C)(C)NC(=O)[C@H](CCC(N)=O)NC(=O)[C@H](C)NC(=O)[C@H](CCCCNC(=O)COCCOCCNC(=O)CC[C@H](NC(=O)CCCCCCCCCCCCC(=O)O)C(=O)O)NC(=O)[C@H](CCCN)NC(=O)[C@H](CC(=O)O)NC(=O)[C@H](CC(C)C)NC(=O)[C@](C)(CC(C)C)NC(=O)[C@@H](NC(=O)C(C)(C)NC(=O)[C@H](Cc1ccncc1)NC(=O)[C@H](CC(=O)O)NC(=O)[C@H](CO)NC(=O)[C@@H](NC(=O)[C@](C)(Cc1ccccc1F)NC(=O)[C@@H](NC(=O)CNC(=O)[C@H](CCC(=O)O)NC(=O)C(C)(C)NC(=O)[C@@H](N)Cc1ccc(O)cc1)[C@@H](C)O)[C@@H](C)O)[C@@H](C)CC)[C@@H](C)CC)C(=O)N[C@@H](CCCCNC(=O)COCCOCCNC(=O)CC[C@H](NC(=O)CCCCCCCCCCCCC(=O)O)C(=O)O)C(=O)NCC(=O)NCC(=O)N1CCC[C@H]1C(=O)N[C@@H](CO)C(=O)N[C@@H](CO)C(=O)NCC(=O)N[C@@H](C)C(=O)N1CCC[C@H]1C(=O)N1CCC[C@H]1C(=O)N1CCC[C@H]1C(=O)N[C@@H](CO)C(N)=O` [Example 337], the EC50 is over 10100 nM on hGCGR (setting [2]); over 10100 nM at hGCGR (setting [3]); 0.444 nM on hGLP-1R (cAMP, 37° C., 0.1% bovine casein (no human serum albumin)); 0.0151 nM on hGIPR (setting [2]); 2.65 nM on hGIPR (setting [3]). Besides, the maximal response (Emax) on hGLP-1R (HEK293, cAMP, 37° C., 0.1% bovine casein and 1.0% human serum albumin, percent of maximal response to GLP-1(7-36)NH2, read-out: hGLP-1R Emax, % ± SEM) was determined as 100%; at hGIPR (HEK293, cAMP, 37° C., 0.1% bovine casein and 1.0% human serum albumin, percent of maximal response to GIP(1-42)NH2), 86.8%. In addition, in experiment [1], the Ki was over 957 nM.
Regarding `CC[C@H](C)[C@H](NC(=O)[C@H](CC(C)C)NC(=O)[C@](C)(Cc1ccc(O)cc1)NC(=O)[C@@H](CCC(=O)O)NC(=O)[C@@H](NC(=O)[C@H](Cc1ccccc1)NC(=O)[C@H](CCC(=O)O)NC(=O)C(C)(C)NC(=O)[C@H](CCC(N)=O)NC(=O)[C@H](C)NC(=O)[C@H](CCCCNC(=O)CC[C@H](NC(=O)COCCOCCNC(=O)COCCOCCNC(=O)CCCCCCCCCCCCC(=O)O)C(=O)O)NC(=O)[C@H](CCCN)NC(=O)[C@H](CC(=O)O)NC(=O)[C@H](CC(C)C)NC(=O)[C@](C)(CC(C)C)NC(=O)[C@@H](NC(=O)[C@H](CO)NC(=O)[C@H](Cc1ccncc1)NC(=O)[C@H](CC(=O)O)NC(=O)[C@H](CO)NC(=O)[C@@H](NC(=O)[C@](C)(Cc1ccccc1F)NC(=O)[C@@H](NC(=O)CNC(=O)[C@H](CCC(=O)O)NC(=O)C(C)(C)NC(=O)[C@@H](N)Cc1ccc(O)cc1)[C@@H](C)O)[C@@H](C)O)[C@@H](C)CC)[C@@H](C)CC)C(=O)N[C@@H](CCC(=O)O)C(=O)NCC(=O)NCC(=O)N[C@@H](CCCCNC(=O)CC[C@H](NC(=O)COCCOCCNC(=O)COCCOCCNC(=O)CCCCCCCCCCCCC(=O)O)C(=O)O)C(=O)N[C@@H](CO)C(=O)N[C@@H](CO)C(=O)NCC(=O)N[C@@H](C)C(=O)N1CCC[C@H]1C(=O)N1CCC[C@H]1C(=O)N1CCC[C@H]1C(=O)N[C@@H](CO)C(N)=O` [Example 41], the EC50 was over 9950 nM at hGCGR (setting [4]); over 9950 nM on hGCGR (setting [5]); 27.2 nM on hGLP-1R (0.1% bovine casein and 1.0% human serum albumin, 37° C.); 0.691 nM on hGLP-1R (setting [6]); 0.405 nM on hGIPR (setting [4]); 0.0108 nM at hGIPR (setting [5]). In addition, the Emax at hGIPR (setting [7]) amounted to 88.5 ± 0.638%. Also, the Ki in experiment [1] was over 957 nM.
As to `CC[C@H](C)[C@H](NC(=O)[C@H](CCCN)NC(=O)[C@H](CC(=O)O)NC(=O)[C@H](CC(C)C)NC(=O)[C@](C)(CC(C)C)NC(=O)[C@@H](NC(=O)C(C)(C)NC(=O)[C@H](Cc1ccncc1)NC(=O)[C@H](CC(=O)O)NC(=O)[C@H](CO)NC(=O)[C@@H](NC(=O)[C@](C)(Cc1ccccc1F)NC(=O)[C@@H](NC(=O)CNC(=O)[C@H](CCC(=O)O)NC(=O)C(C)(C)NC(=O)[C@@H](N)Cc1ccc(O)cc1)[C@@H](C)O)[C@@H](C)O)[C@@H](C)CC)C(=O)N[C@@H](C)C(=O)N[C@@H](CCC(N)=O)C(=O)NC(C)(C)C(=O)N[C@@H](CCC(=O)O)C(=O)N[C@@H](Cc1ccccc1)C(=O)N[C@H](C(=O)N[C@@H](CCCCNC(=O)COCCOCCNC(=O)COCCOCCNC(=O)CC[C@H](NC(=O)CCCCCCCCCCCCC(=O)O)C(=O)O)C(=O)N[C@@](C)(Cc1ccc(O)cc1)C(=O)N[C@@H](CC(C)C)C(=O)N[C@H](C(=O)N[C@@H](CCCCNC(=O)COCCOCCNC(=O)COCCOCCNC(=O)CC[C@H](NC(=O)CCCCCCCCCCCCC(=O)O)C(=O)O)C(=O)NCC(=O)NCC(=O)N1CCC[C@H]1C(=O)N[C@@H](CO)C(=O)N[C@@H](CO)C(=O)NCC(=O)N[C@@H](C)C(=O)N1CCC[C@H]1C(=O)N1CCC[C@H]1C(=O)N1CCC[C@H]1C(=O)N[C@@H](CO)C(N)=O)[C@@H](C)CC)[C@@H](C)CC` [Example 219], the EC50 at hGCGR (setting [4]) is over 9950 nM; at hGCGR (setting [5]), over 9950 nM; at hGLP-1R (setting [6]), 0.376 nM; at hGIPR (setting [5]), 0.0227 nM. The Emax at hGIPR (setting [7]) came to 82.9%; on hGIPR (HEK293, percent of maximal response to GIP(1-42)NH2, 37° C., 0.1% bovine casein, arithmetic mean), 96.7%. The Ki in experiment [1] is 135 nM.
